18 compounds from patent US9365502B2, “Neuroactive substituted cyclopenta[b]phenanthrenes as modulators for GABA type-A receptors” (priority 2013, dated 2016) can be followed below.

The target of data set [1] is rat α1β2γ2L type GABAA receptors expressed in Xenopus laevis oocytes (Rattus norvegicus (Rat), UniProt P62813+P63138, INS375LLRMFSFK). The experiment in a line: Potentiation of GABA-mediated chloride currents, oocyte electrophysiology. The class given is cell-based. To be noted: ± SEM; for Oocyte electrophysiology 0.1 μM (ratio of currents in presence/absence of compound): 0.1 μM compound; for Oocyte electrophysiology 0.1 μM (ratio of currents in presence/absence of compound) / Oocyte electrophysiology 1.0 μM (ratio of currents in presence/absence of compound) / Oocyte electrophysiology 10 μM (ratio of currents in presence/absence of compound): 2 μM GABA, N>=4; for Oocyte electrophysiology 1.0 μM (ratio of currents in presence/absence of compound): 1.0 μM compound; for Oocyte electrophysiology (gating) 10 μM (ratio of compound only current/2 μM GABA current): 10 μM compound in the absence of GABA; for Oocyte electrophysiology 10 μM (ratio of currents in presence/absence of compound): 10 μM compound. As to the method:
The compounds of the present disclosure were evaluated for the ability to potentiate chloride currents mediated by 2 μM GABA at rat α1β2γ2L type GABAA receptors expressed in Xenopus laevis oocytes and the results are shown in Table 2.
The GABA concentration used for the control response was 2 μM. Each compound was evaluated on at least four different oocytes at the concentrations indicated, and the results reported are the ratio of currents measured in the presence/absence of added compound. Gating represents direct current gated by 10 μM compound in the absence of GABA, and this current is reported as the ratio of compound only current/2 μM GABA current. Error limits are calculated as standard error of the mean (N≧4). Methods used are known in the art (see Jiang, X., et al.).

Data set [2] has as its target picrotoxin binding site on GABAA receptors. Nature of the data set: [35S]-TBPS displacement (inhibition of [35S]-TBPS binding). The following applies: mean ± SEM, duplicate experiments performed in triplicate. How it is done: The IC50 values for non-competitive displacers of [^35S]-TBPS from the picrotoxin binding site on GABAA receptors are reported in Table 1.
Results presented are from duplicate experiments performed in triplicate. Error limits are calculated as standard error of the mean. Methods used are known in the art (see Jiang, X., et al., Neurosteroid analogues. 9. Conformationally constrained pregnanes: structure-activity studies of 13,24-cyclo-18,21-dinorcholane analogues of the GABA modulatory and anesthetic steroids (3α,5α)- and […]. J. Med. Chem., 46: 5334-48 (2003)—the contents of which are hereby incorporated by reference in their entirety).

The subject of the next data set is Tadpole. Nature of the data set: Tadpole loss of righting (LRR) and loss of swimming (LSR) reflexes. To be noted: ± SEM. The class given is in vivo. As to the method:
Table 3 discloses the anesthetic effects of the compounds of the present disclosure. In particular, the anesthetic effect of the compounds of the present disclosure on Loss of Righting Reflex (LRR) and Loss of Swimming Reflex (LSR).
Methods used are known in the art (see Jiang, X., et al.). Error limits are calculated as standard error of the mean (N=10 or more animals at each of five or more different concentrations).

[3] abbreviates: loss of righting reflex, read-out: Tadpole LRR EC50.
Where [4] appears, read: loss of swimming reflex, read-out: Tadpole LSR EC50.

Molecules are shown by their SMILES. Like-named read-outs stand apart in the source and are kept apart here.

A word on the melting point: it is the temperature of the solid-liquid transition. `C[C@@]12CC[C@H](O)C[C@H]1CC[C@@H]1C[C@@]3(C)[C@@H](CC[C@@]34CO4)C[C@H]12` came in with a melting point of 138 to 140 °C.
Same read-out and setting: next, `C[C@@]12CC[C@H](O)C[C@H]1CC[C@@H]1C[C@]3(C)C(C#N)=CC[C@H]3C[C@H]12` (stereo in doubt): 170 to 172 °C; `C[C@@]12C[C@@H]3CC[C@H]4C[C@H](O)CC[C@@H]4[C@H]3C[C@H]1CC[C@H]2C#N`: 163 to 165 °C.
On the same count and under the same terms, the value for `C[C@]12C[C@H]3CC[C@@H]4C[C@@H](O)CC[C@H]4[C@@H]3C[C@@H]1CC[C@@H]2[N+](=O)[O-]` was 157 to 159 °C.
As for `C[C@]12C[C@H]3CC[C@@H]4C[C@@H](O)CC[C@H]4[C@@H]3C[C@@H]1CC[C@@H]2C#N`, the melting point lay within 162 to 164 °C.
Same read-out and setting: next, `C[C@@]12C[C@@H]3CC[C@@H]4C[C@H](O)CC[C@@H]4[C@H]3C[C@H]1CCC2=O` (stereo in doubt): 174 to 176 °C; `C[C@@]12C[C@@H]3CC[C@@H]4C[C@H](O)CC[C@@H]4[C@H]3C[C@H]1CC[C@]21CO1`: 163 to 165 °C.
`C[C@@]12CC[C@H](O)C[C@H]1CC[C@@H]1C[C@]3(C)C(=O)CC[C@H]3C[C@H]12` gave a melting point of 179 to 181 °C.
`C[C@]12C[C@H]3CC[C@@H]4C[C@@H](O)CC[C@@]4(C)[C@@H]3C[C@@H]1CC[C@@H]2C#N`: the melting point lay within 145 to 147 °C.
Broadly, the IC50 is the point on the concentration scale where inhibition reaches its midpoint. Read a low IC50 as greater potency. As a reminder, the EC50 is the midpoint of the concentration-response curve. Consider `C[C@@]12CC[C@H](O)C[C@H]1CC[C@@H]1C[C@@]3(C)C(CC[C@@H]3C#N)CC12` (stereo partly drawn) [MQ-87], for which, in data set [1], the “Oocyte electrophysiology 0.1 μM (ratio of currents in presence/absence of compound)” value came to 1.93 ± 0.14, the “Oocyte electrophysiology 1.0 μM (ratio of currents in presence/absence of compound)” value was found to be 10.95 ± 0.55, the “Oocyte electrophysiology (gating) 10 μM (ratio of compound only current/2 μM GABA current)” value was found to be 0.04 ± 0.01 and the “Oocyte electrophysiology 10 μM (ratio of currents in presence/absence of compound)” value stood at 16.10 ± 0.87. In addition, in data set [2], the IC50 was determined as 14 ± 2 nM. Besides, in the data set with Tadpole (setting [3]), the EC50 was found to be 100 ± 10 nM. Further, the EC50 in the data set on Tadpole (setting [4]) is 330 nM.
Consider `C[C@]12CC(=O)CC1CC1C(CCC3C[C@H](O)CCC31)C2` (stereo partly drawn) [MQ-48], for which, in data set [1], the “Oocyte electrophysiology 0.1 μM (ratio of currents in presence/absence of compound)” value was 1.03 ± 0.01, the “Oocyte electrophysiology 1.0 μM (ratio of currents in presence/absence of compound)” value is given as 1.64 ± 0.06, the “Oocyte electrophysiology (gating) 10 μM (ratio of compound only current/2 μM GABA current)” value is listed as 0.01 ± 0.0 and the “Oocyte electrophysiology 10 μM (ratio of currents in presence/absence of compound)” value came to 7.10 ± 1.51. Moreover, in data set [2], the IC50 turned out to be 282 ± 197 nM. The EC50 with Tadpole (setting [3]) was 2390 ± 280 nM. The EC50 in the data set with Tadpole (setting [4]) was 7490 nM.
Compound `C[C@]12C[C@H]3CC[C@H]4C[C@@H](O)CC[C@H]4[C@@H]3C[C@@H]1CCC2=O` gave a melting point of 175 to 177 °C.
Regarding `C[C@]12CC(=O)C[C@@H]1C[C@H]1[C@@H](CC[C@H]3C[C@H](O)CC[C@@H]31)C2`, the melting point lay within 165 to 166 °C.
The compound `CC(=O)[C@H]1CC[C@H]2C[C@@H]3[C@H](CC[C@@H]4C[C@@H](O)CC[C@H]43)C[C@@]21C` registered a melting point of 131 to 133 °C.
Compound `C[C@@]12C[C@@H]3CC[C@H]4C[C@H](O)CC[C@@H]4[C@H]3C[C@H]1CC[C@]21CO1` showed a melting point of 165 to 167 °C.
In the case of `CC(=O)[C@@H]1CC[C@@H]2C[C@H]3[C@@H](CC[C@H]4C[C@H](O)CC[C@@H]43)C[C@]21C`, the melting point fell in the range of 128 to 130 °C.
For `C[C@@]12CC[C@@H](O)C[C@@H]1CC[C@H]1C[C@@]3(C)[C@H](CC[C@@]34CO4)C[C@@H]12` [MQ-85], in data set [1], the “Oocyte electrophysiology 0.1 μM (ratio of currents in presence/absence of compound)” value is given as 2.08 ± 0.23, the “Oocyte electrophysiology 1.0 μM (ratio of currents in presence/absence of compound)” value was 9.59 ± 1.77, the “Oocyte electrophysiology (gating) 10 μM (ratio of compound only current/2 μM GABA current)” value is 0.10 ± 0.02 and the “Oocyte electrophysiology 10 μM (ratio of currents in presence/absence of compound)” value came to 17.18 ± 3.31. Moreover, in data set [2], the IC50 was determined as 29 ± 7 nM. Further, in the data set on Tadpole (setting [3]), the EC50 turned out to be 350 ± 20 nM. Further, the half-maximal effective concentration (EC50) with Tadpole (setting [4]) is 550 ± 10 nM.
For `CC(=O)[C@H]1CCC2CC3C(CCC4C[C@H](O)CCC43)C[C@@]21C` (stereo partly drawn) [MQ-39], in data set [1], the “Oocyte electrophysiology 0.1 μM (ratio of currents in presence/absence of compound)” value was found to be 1.32 ± 0.03, the “Oocyte electrophysiology 1.0 μM (ratio of currents in presence/absence of compound)” value is on record as 3.82 ± 0.36, the “Oocyte electrophysiology (gating) 10 μM (ratio of compound only current/2 μM GABA current)” value was 0.03 ± 0.0 and the “Oocyte electrophysiology 10 μM (ratio of currents in presence/absence of compound)” value is listed as 7.91 ± 0.64. For the same compound, the IC50 in data set [2] was 65 ± 7 nM. Also, the EC50 in the data set on Tadpole (setting [3]) stood at 340 nM. Besides, in the data set with Tadpole (setting [4]), the EC50 was determined as 1070 nM.
